{"source": "patent US20180319786A1", "about": "“INHIBITOR OF THE P2X7 RECEPTOR” (H. Lundbeck A/S, priority 2015, published 2018)", "key": {"human P2X7 receptors": {"target": "T1, human P2X7 receptors (Homo sapiens, UniProt Q99572)", "T1 construct": "expressed in transfected cells; host or cells: HEK293", "T1 sequence (Q99572 1-595)": "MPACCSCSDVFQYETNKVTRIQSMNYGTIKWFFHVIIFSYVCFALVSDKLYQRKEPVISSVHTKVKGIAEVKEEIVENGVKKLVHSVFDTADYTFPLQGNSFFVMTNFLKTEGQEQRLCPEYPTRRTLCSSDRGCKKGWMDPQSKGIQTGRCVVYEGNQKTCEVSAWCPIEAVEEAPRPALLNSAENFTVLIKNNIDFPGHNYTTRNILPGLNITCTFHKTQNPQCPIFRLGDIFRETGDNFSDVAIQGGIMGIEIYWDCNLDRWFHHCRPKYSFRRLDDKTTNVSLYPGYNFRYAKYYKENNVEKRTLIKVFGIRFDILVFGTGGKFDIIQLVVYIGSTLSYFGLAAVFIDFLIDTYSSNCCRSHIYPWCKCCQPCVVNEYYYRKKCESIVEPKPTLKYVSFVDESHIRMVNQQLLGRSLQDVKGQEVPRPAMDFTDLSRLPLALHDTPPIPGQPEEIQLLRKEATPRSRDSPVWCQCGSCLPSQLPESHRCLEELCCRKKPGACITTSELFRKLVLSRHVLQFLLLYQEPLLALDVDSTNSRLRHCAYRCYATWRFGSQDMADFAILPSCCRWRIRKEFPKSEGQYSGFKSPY", "assay": "P2X7 FLIPR assay", "type": "cell-based", "conditions": "Human P2X7 in HEK293 cells, BzATP 8 μM, Ca2+ mobilization", "description": "HEK293 cells stably expressing either human, mouse, or rat P2X7 receptors were plated in 384-well poly-D-lysine-coated black FLIPR plates (Greiner One, Cat #781946) using 1.5% FBS media 24 hours before the assay. Sucrose buffer, pH 7.4 was used for the human-P2X7 assay (5 mM of potassium chloride, 9.6 mM NaH2PO4.2H2O, 25 mM Hepes, 0.5 mM CaCl2, 5 mM glucose, 280 mM sucrose and 1.0 mM probenecid (Sigma, St. Louis, Mo.)). Hank's balanced salt solution buffer, pH 7.4 was used for the rat-P2X7 assay (1×HBSS buffer supplemented with 20 mM Hepes plus 2.5 mM probenecid (Sigma, St. Louis, Mo.) and 0.05% bovine serum albumin After removing the media, the plates were loaded with 30 μL of Fluo-4 NW (Molecular Probes, F36206), and were incubated at 37° C. for 30 min in a humidified chamber (5% CO2/95% air), and for 30 min at RT. Mobilization of intracellular Ca^+2 in response to different ligands was measured online using the FLIPR Tetra reader. In the assay, baseline fluorescence was measured for 15 seconds, then 15 μL of 4× compounds (40 μM) was added, fluorescence was monitored for 3 min for agonist activity, 15 μL of 4×BzATP (hP2X7 1×8 μM, rP2X7 1×15 μM) was added and after a 30 min incubation at room temperature the fluorescence was read for 3 min for IC50 determination."}, "CFA inflamed rats": {"tested_on": "CFA inflamed rats", "assay": "CFA-induced inflammatory hyperalgesia (paw pressure threshold)", "type": "in vivo, rat", "description": "(§1) Male Sprague Dawley rats (Charles River, Germany) weighing 250-300 g on the day of gabapentin administration were used (n=8-10 per group). The animals were housed in Macrolon III cages (20×14×18 cm or 20×40×18 cm; in groups of 3-5 per cage according to weight) containing wood-chip bedding material (3×1×4 mm) in an air-conditioned building with controlled environmental parameters (relative humidity 55±15%, temperature 20±2° C., and light from 06.00 to 19.00 h). Food and water were available ad libitum. The rats were allowed to habituate to the housing facilities for at least one week prior to being assigned to behavioral experiments whereupon they were randomly distributed across treatment groups. All experiments were performed according to the Ethical Guidelines of the International Association for the Study of Pain and the Danish Committee for Experiments on Animals.\nIndividual rats received a subcutaneous injection of CFA (50% in saline, 100 μl total volume, Sigma Aldrich) into the plantar surface of the hindpaw. All rats were then immediately returned to their homecage. The day prior to this (pre-CFA baseline response), and then again 24 h post CFA injection (post-CFA baseline response), hindpaw paw pressure thresholds were measured to obtain an index of evoked mechanical hyperalgesia [Ref: Munro, G., et al., Neuropharmacology, 2011. 61(1-2): p. 121-132.1. To do this, the investigator gently restrained the rat prior to the application of progressively increasing mechanical pressure to the mid hindpaw region using an electronic version of the Randall-Selitto device (HTC, U.S.A.) The point at which the rat attempted to make a reflex hindpaw withdrawal which in some instances was followed by vocalization was recorded as the paw pressure threshold (g). […] Thereafter, CFA inflamed rats received oral administration of (S)-N-(2-(4-chlorophenyl)-2-morpholinoethyl)-2-(pyrimidin-2-yl)-4-(trifluoromethyl)thiazole-5-carboxamide or vehicle with the investigator blinded to treatment and the paw pressure threshold measured again 60 minutes later."}, "SNI rats": {"tested_on": "SNI rats", "assay": "SNI model of neuropathic pain (von Frey mechanical allodynia)", "type": "in vivo, rat", "conditions": "for reversal of mechanical hypersensitivity: SNI rats 3-4 weeks post injury", "description": "as §1\nA spared nerve injury (SNI) was performed in rats (body weight 180-220 g at the time of surgery) as described previously [Decosterd, I. and C. J. Woolf, Pain, 2000. 87(2): p. 149-581. Anaesthesia was induced and maintained by 2% isoflurane (Baxter A/S, Alleroed, Denmark), combined with oxygen (30%) and nitrous oxide (68%). Next, the skin of the lateral left thigh was incised and the cranial and caudal parts of the biceps femoris muscle were separated and held apart by a retractor to expose the sciatic nerve and its three terminal branches: the sural, common peroneal and tibial nerves. The tibial and common peroneal nerves were tightly ligated with 4/0 silk and 2-3 mm of the nerve distal to the ligation was removed. Any stretching or contact with the intact sural nerve was avoided. […] The presence of mechanical allodynia was assessed using a series of calibrated von Frey hairs (lower limit=0.06 and upper limit=13.5 g, Stoelting Co, Wood Dale Ill.), which were applied to the lateral aspect of the plantar surface of the hindpaw with increasing force until an individual filament used just started to bend. […]"}, "CCI animals": {"tested_on": "CCI animals", "assay": "Chronic constrictive injury (CCI) model of neuropathic pain (von Frey PWT)", "type": "in vivo, rat", "conditions": "100 mg/kg, PWT 120 minutes following administration, p<0.05", "description": "Male Sprague Dawley rats (Harlan) were used in the study. Upon receipt, rats were group housed with 2-3 per cage in standard cages. Rats were allowed to acclimate for up to 1 week prior to surgery. All rats were examined and weighed prior to initiation of the study to assure adequate health and suitability. During the course of the study, 12/12 light/dark cycles were maintained. The room temperature was maintained between 20° C. and 23° C. with a relative humidity maintained around 50%. Chow and water were provided ad libitum for the duration of the study. All testing was performed during the animals' light cycle phase. Rats were single housed after surgery.\nThis surgery was performed according to Bennett and Xie (1988). […] Each rat was monitored until awake and moving freely around the recovery chamber. […]\nPaw withdrawal from a mechanical stimulus was measured by applying von Frey filaments of ascending bending force to the plantar surface of the hind paws (ipsilateral and contralateral). Baseline and post-treatment withdrawal threshold values for non-noxious mechanical sensitivity were evaluated using von Frey filaments (Semmes-Weinstein filaments, Stoelting, Wood Dale, Ill., USA) of varying stiffness (0.4, 0.7, 1.2, 2.0, 3.6, 5.5, 8.5, 10, 15, 26 g). […]\nData were analyzed by Analysis of variance (ANOVA), followed by post-hoc comparisons when appropriate. […]"}}, "data": [{"smiles": "O=C(NCC(c1ccc(Cl)cc1)N1CCOCC1)c1sc(-c2ncccn2)nc1C(F)(F)F", "note": "(racemic) [Compound (III), (±)-N-(2-(4-chlorophenyl)-2-morpholinoethyl)-2-(pyrimidin-2-yl)-4-(trifluoromethyl)thiazole-5-carboxamide]", "values": [{"measurement": "IC50", "setting": "human P2X7 receptors", "value": "32 ± 13", "unit": "nM"}]}, {"smiles": "O=C(NC[C@H](c1ccc(Cl)cc1)N1CCOCC1)c1sc(-c2ncccn2)nc1C(F)(F)F", "note": "[Compound (I), (S)-N-(2-(4-chlorophenyl)-2-morpholinoethyl)-2-(pyrimidin-2-yl)-4-(trifluoromethyl)thiazole-5-carboxamide]", "values": [{"measurement": "IC50", "setting": "human P2X7 receptors", "value": "12 ± 10", "unit": "nM"}, {"measurement": "reversal of mechanical hyperalgesia", "setting": "CFA inflamed rats; 30 mg/kg dose, oral, paw pressure threshold 60 minutes later, 24 h post CFA", "value": 62, "unit": "% reversal"}, {"measurement": "effect on mechanical hyperalgesia", "setting": "CFA inflamed rats; oral, F(4.49)=30.692, P<0.001", "value": "significantly reversed"}, {"measurement": "reversal of mechanical hypersensitivity", "setting": "SNI rats; 30 and 100 mg/kg tested, dose of this value not stated", "value": 108, "unit": "% reversal"}, {"measurement": "effect on mechanical hypersensitivity", "setting": "SNI rats; 30 and 100 mg/kg, F(3.47)=12.522, P<0.001", "value": "dose dependently reversed"}, {"measurement": "PWT compared to vehicle treatment", "setting": "CCI animals", "value": "significantly increased"}]}, {"smiles": "O=C(NC[C@@H](c1ccc(Cl)cc1)N1CCOCC1)c1sc(-c2ncccn2)nc1C(F)(F)F", "note": "[Compound (II), (R)-N-(2-(4-chlorophenyl)-2-morpholinoethyl)-2-(pyrimidin-2-yl)-4-(trifluoromethyl)thiazole-5-carboxamide]", "values": [{"measurement": "IC50", "setting": "human P2X7 receptors", "value": "89 ± 13", "unit": "nM"}]}, {"smiles": "O=C(O)Cc1ccccc1Nc1c(Cl)cccc1Cl", "note": "[diclofenac, reference compound]", "values": [{"measurement": "reversal of mechanical hyperalgesia", "setting": "CFA inflamed rats; NSAID comparator, dose not given", "value": 84, "unit": "% reversal"}]}, {"smiles": "NCC1(CC(=O)O)CCCCC1", "note": "[gabapentin, reference compound]", "values": [{"measurement": "reversal of mechanical hypersensitivity", "setting": "SNI rats; 100 mg/kg dose", "value": 132, "unit": "% reversal"}, {"measurement": "PWT compared to vehicle treatment", "setting": "CCI animals", "value": "significantly increased"}]}]}
